Literature values, collected in US4202888A, “Readily enterally absorbable pharmaceutical compositions of cardiac glycosides and preparation thereof” (priority 1976, dated 1980).

Details: for enteral absorbability (in words): background statement; for per se enteral absorbability: without partial glycerides

CC1OC(OC2CC(O)C3(CO)C4C(O)CC5(C)C(C6=CC(=O)OC6)CCC5(O)C4CCC3(O)C2)C(O)C(O)C1O (stereo not drawn) [g-strophanthin]
enteral absorbability (in words): insufficient enteral absorbability
factor of individual variation in enteral absorption (between individuals): 10
per se enteral absorbability: less than 5%

k-strophanthin
enteral absorbability (in words): insufficient enteral absorbability
per se enteral absorbability: less than 5%

C[C@H]1O[C@@H](O[C@H]2[C@@H](O)C[C@H](O[C@H]3[C@@H](O)C[C@H](O[C@H]4CC[C@@]5(C)[C@H](CC[C@@H]6[C@@H]5CC[C@]5(C)[C@@H](C7=CC(=O)OC7)CC[C@]65O)C4)O[C@@H]3C)O[C@@H]2C)C[C@H](O)[C@@H]1O [digitoxin]
enteral absorbability (in words): absorbable completely

C[C@H]1O[C@@H](O[C@H]2[C@@H](O)C[C@H](O[C@H]3[C@@H](O)C[C@H](O[C@H]4CC[C@@]5(C)[C@H](CC[C@@H]6[C@@H]5C[C@@H](O)[C@]5(C)[C@@H](C7=CC(=O)OC7)CC[C@]65O)C4)O[C@@H]3C)O[C@@H]2C)C[C@H](O)[C@@H]1O [digoxin]
enteral absorbability (in words): to at least an acceptable degree

C[C@@H]1O[C@@H](O[C@@H]2C=C3CC[C@@H]4[C@H](CC[C@]5(C)[C@@H](c6ccc(=O)oc6)CC[C@]45O)[C@@]3(C)CC2)[C@H](O)[C@H](O)[C@H]1O [proscillaridin]
enteral absorbability (in words): insufficient enteral absorbability
per se enteral absorbability: less than 5%
